Broadly, the IC50 is the concentration that inhibits the measured activity by half.

What all share (type): cell-based
For one experiment, the target named is T1, human A3 receptor (Homo sapiens, UniProt P0DMS8).
T1 construct: expressed in transfected cells; host or cells: CHO
T1 sequence (P0DMS8 1-318): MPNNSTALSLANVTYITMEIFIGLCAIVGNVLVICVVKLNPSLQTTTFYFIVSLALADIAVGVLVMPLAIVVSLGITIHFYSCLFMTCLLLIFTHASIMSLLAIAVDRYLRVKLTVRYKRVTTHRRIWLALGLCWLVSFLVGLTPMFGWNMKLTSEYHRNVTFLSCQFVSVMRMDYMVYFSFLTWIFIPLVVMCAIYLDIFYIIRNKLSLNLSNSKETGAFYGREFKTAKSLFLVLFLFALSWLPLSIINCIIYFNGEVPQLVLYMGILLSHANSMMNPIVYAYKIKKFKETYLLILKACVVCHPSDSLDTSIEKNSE
Nature of the experiment: cAMP HTRF functional assay, recombinant CHO cells expressing human A3 receptor, forskolin and agonist IB-MECA. As for the experimental part:
(§1) The functional activities of human A2A, A2B, A1 and A3 receptors were determined by quantification of cAMP, being the second messenger for adenosine receptors.
(§2) For human A1 and A3 receptors, recombinant CHO cells, expressing either A1 or A3-receptor, were used. As both receptors couple to Gi proteins, the assay protocol was adapted:
(§3) Cells were seeded into 384-well plates, forskolin, test compounds and agonists (CPA for A1- and IB-MECA for A3-receptor) were added. After 30 min incubation, HTRF reagents (cAMP dynamic 2, Cis Bio) were added and the cellular cAMP levels were determined using the ENVISION (Perkin Elmer) plate reader.
(§4) Obtained raw data were normalized against the inhibitor control and the neural control (DMSO) and the normalized data were fitted using GeneData software.
(In general: Time-resolved FRET reads energy transfer from a long-lived donor to a nearby acceptor.)

Another experiment deals with T2, human A1 receptor (Homo sapiens, UniProt P30542).
T2 construct: expressed in transfected cells; host or cells: CHO
T2 sequence (P30542 1-326): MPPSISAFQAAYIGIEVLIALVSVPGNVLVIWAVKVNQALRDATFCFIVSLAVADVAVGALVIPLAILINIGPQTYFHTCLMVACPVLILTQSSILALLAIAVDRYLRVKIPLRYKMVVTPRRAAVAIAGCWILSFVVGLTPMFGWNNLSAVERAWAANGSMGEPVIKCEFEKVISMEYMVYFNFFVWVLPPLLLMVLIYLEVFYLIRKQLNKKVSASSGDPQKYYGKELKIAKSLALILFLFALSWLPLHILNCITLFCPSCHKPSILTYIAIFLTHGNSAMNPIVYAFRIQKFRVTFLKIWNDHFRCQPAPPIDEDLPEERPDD
Nature of the experiment: cAMP HTRF functional assay, recombinant CHO cells expressing human A1 receptor, forskolin and agonist CPA. As to the method:
as §1, §2, §3, §4

Another experiment has as its target T3, human A2A receptor (Homo sapiens, UniProt P29274).
T3 construct: expressed in transfected cells; host or cells: HEK293
The experiment can be described thus: cAMP HTRF functional assay, recombinant HEK293 cells expressing human A2A receptor, agonist NECA. As to the method: as §1, §4

A further experiment deals with T4, A2B receptors (Homo sapiens, UniProt P29275).
T4 sequence (P29275 1-332): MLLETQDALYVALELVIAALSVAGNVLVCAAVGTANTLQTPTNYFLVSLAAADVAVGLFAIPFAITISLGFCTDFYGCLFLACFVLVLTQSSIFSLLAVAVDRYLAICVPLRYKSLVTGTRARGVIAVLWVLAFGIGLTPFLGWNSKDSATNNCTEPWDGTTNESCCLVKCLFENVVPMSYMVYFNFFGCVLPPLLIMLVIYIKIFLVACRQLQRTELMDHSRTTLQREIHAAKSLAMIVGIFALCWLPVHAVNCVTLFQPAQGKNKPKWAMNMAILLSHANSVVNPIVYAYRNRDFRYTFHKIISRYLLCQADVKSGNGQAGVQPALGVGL
Nature of the experiment: cAMP HTRF functional assay, recombinant HEK293 cells expressing human A2B receptor, agonist NECA. More on the design: expressed in transfected cells; host or cells: HEK293. As for the experimental part:
as §1, §4

[1] abbreviates: recombinant HEK293 cells, cAMP, agonist NECA.

Like-named read-outs stand apart in the source and are kept apart here.

T3 sequence (P29274 whole entry): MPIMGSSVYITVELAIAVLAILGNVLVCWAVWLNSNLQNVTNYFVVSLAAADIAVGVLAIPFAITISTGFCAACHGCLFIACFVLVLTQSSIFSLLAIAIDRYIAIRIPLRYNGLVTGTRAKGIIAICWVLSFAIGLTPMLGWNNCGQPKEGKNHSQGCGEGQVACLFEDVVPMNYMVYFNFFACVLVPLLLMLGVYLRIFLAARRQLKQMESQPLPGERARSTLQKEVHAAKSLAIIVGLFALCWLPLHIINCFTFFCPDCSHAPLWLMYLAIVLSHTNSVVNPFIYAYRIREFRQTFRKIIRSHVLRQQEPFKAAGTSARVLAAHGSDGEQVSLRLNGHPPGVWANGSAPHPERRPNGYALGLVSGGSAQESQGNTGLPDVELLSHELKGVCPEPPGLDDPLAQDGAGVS

With “4-hydroxy-N-[8-methoxy-5-(2-methylphenyl)quinoxalin-2-yl]-4-methylpiperidine-1-carboxamide [compound 29]”, the IC50 was above 1000 nM on human A3 receptor, above 1000 nM at human A1 receptor, below 100 nM on human A2A receptor (setting [1]) and below 1000 nM at A2B receptors (setting [1]).
Take `COc1ccc(C2CCOCC2)c2ncc(NC(=O)c3coc(C)n3)nc12` [compound 16]: the IC50 at human A3 receptor is above 1000 nM; at human A1 receptor, above 1000 nM; on human A2A receptor, below 100 nM; at A2B receptors, above 1000 nM.
`COc1ccc(-c2ccccc2)c2ncc(NC(=O)c3cnc(C)s3)nc12` [compound 48]: the IC50 is above 1000 nM on human A3 receptor, below 1000 nM on human A1 receptor, below 10 nM on human A2A receptor and below 100 nM on A2B receptors.
The matching figures for `COc1ccc(-c2ccccc2)c2ncc(NC(=O)c3cnc(C)o3)nc12` [compound 105, N-(8-methoxy-5-phenylquinoxalin-2-yl)-2-methyl-1,3-oxazole-5-carboxamide]: below 1000 nM, below 1000 nM, below 10 nM and below 100 nM.
Regarding `COc1ncc(C2CCOCC2)c2ncc(NC(=O)C3CC3)nc12` [compound 106, Cyclopropanecarboxylic acid [5-methoxy-8-(tetrahydro-pyran-4-yl)-pyrido[3,4-b]pyrazin-3-yl]-amide], the IC50 was above 1000 nM on human A3 receptor, below 1000 nM at human A1 receptor, below 10 nM at human A2A receptor and below 100 nM at A2B receptors.
Taken in the same sequence, the figures for `COCCOCc1cccc(-c2ccc(OC)c3nc(NC(=O)N4CCC(C)(O)CC4)cnc23)c1` [compound 118, 4-hydroxy-N-(8-methoxy-5-{3-[(2-methoxyethoxy)methyl]phenyl}quinoxalin-2-yl)-4-methylpiperidine-1-carboxamide] were above 1000 nM, above 1000 nM, below 100 nM and above 1000 nM.
As to `COc1ccc(-c2ccccc2F)c2ncc(NC(=O)C3CC3)nc12` [compound 120, N-[5-(2-fluorophenyl)-8-methoxyquinoxalin-2-yl]cyclopropanecarboxamide], the IC50 on human A3 receptor was below 1000 nM; on human A1 receptor, below 1000 nM; at human A2A receptor, below 10 nM; on A2B receptors, below 100 nM.
As for `COc1ccc(-c2cccnc2)c2ncc(NC(=O)C3CC3)nc12` [compound 121, N-[8-methoxy-5-(pyridin-3-yl)quinoxalin-2-yl]cyclopropanecarboxamide], the IC50 was below 1000 nM on human A3 receptor, below 1000 nM on human A1 receptor, below 100 nM on human A2A receptor and below 1000 nM at A2B receptors.
For `COc1ccc(N2CCCCCC2)c2ncc(NC(=O)C3CC3)nc12` [compound 122, N-[5-(azepan-1-yl)-8-methoxyquinoxalin-2-yl]cyclopropanecarboxamide], the IC50 was above 1000 nM on human A3 receptor, above 1000 nM on human A1 receptor and below 100 nM at human A2A receptor.
Regarding `COc1ccc(-c2cccc(F)c2F)c2ncc(NC(=O)C3CC3)nc12` [compound 123, N-[5-(2,3-difluorophenyl)-8-methoxyquinoxalin-2-yl]cyclopropanecarboxamide], the IC50 on human A3 receptor was below 1000 nM; at human A1 receptor, below 1000 nM; at human A2A receptor, below 10 nM; at A2B receptors, below 100 nM.
With `COc1ccc(-c2cc(F)ccc2F)c2ncc(NC(=O)C3CC3)nc12` [compound 124, N-[5-(2,5-difluorophenyl)-8-methoxyquinoxalin-2-yl]cyclopropanecarboxamide], the IC50 at human A3 receptor was below 1000 nM; on human A1 receptor, below 1000 nM; at human A2A receptor, below 10 nM; on A2B receptors it was above 1000 nM.
Take `COc1ccc(-c2ccc(F)cc2)c2ncc(NC(=O)C3CC3)nc12` [compound 126, N-[5-(4-fluorophenyl)-8-methoxyquinoxalin-2-yl]cyclopropanecarboxamide]: the IC50 is below 1000 nM on human A3 receptor, below 1000 nM at human A1 receptor, below 10 nM on human A2A receptor and below 100 nM on A2B receptors.
Take `COc1ccc(-c2cc(F)ccc2F)c2ncc(NC(=O)c3cnc(C)o3)nc12` [compound 128, N-[5-(2,5-difluorophenyl)-8-methoxyquinoxalin-2-yl]-2-methyl-1,3-oxazole-5-carboxamide]: the figures for the IC50 at human A3 receptor, at human A1 receptor and at human A2A receptor were below 1000 nM, above 1000 nM and below 100 nM, respectively.
With `COc1ccc(-c2ccc(F)cc2)c2ncc(NC(=O)c3cnc(C)o3)nc12` [compound 131, N-[5-(4-fluorophenyl)-8-methoxyquinoxalin-2-yl]-2-methyl-1,3-oxazole-5-carboxamide], the IC50 on human A3 receptor is below 1000 nM; at human A1 receptor it was below 1000 nM; on human A2A receptor, below 10 nM; at A2B receptors it was below 100 nM.
As to `COc1ccc(C2=CCOCC2)c2ncc(NC(=O)c3cnc(C)s3)nc12` [compound 134, N-[5-(3,6-dihydro-2H-pyran-4-yl)-8-methoxyquinoxalin-2-yl]-2-methyl-1,3-thiazole-5-carboxamide], the IC50 was above 1000 nM on human A3 receptor, below 1000 nM on human A1 receptor, below 10 nM on human A2A receptor and below 100 nM at A2B receptors.
As for `COc1ccc(C2=CCOCC2)c2ncc(NC(=O)c3csc(N)n3)nc12` [compound 139, 2-amino-N-[5-(3,6-dihydro-2H-pyran-4-yl)-8-methoxyquinoxalin-2-yl]-1,3-thiazole-4-carboxamide], the IC50 is above 1000 nM at human A1 receptor, below 100 nM on human A2A receptor and above 1000 nM at A2B receptors.
In the case of `COc1ccc(C2=CCOCC2)c2ncc(NC(=O)c3ncc(C4CCOC4)s3)nc12` (stereo not drawn) [compound 140, N-[5-(3,6-dihydro-2H-pyran-4-yl)-8-methoxyquinoxalin-2-yl]-5-(oxolan-3-yl)-1,3-thiazole-2-carboxamide], the IC50 at human A1 receptor is below 1000 nM; on human A2A receptor it was below 10 nM; at A2B receptors, below 100 nM.
Taken in the same sequence, the figures for `COc1ccc(C2=CCOCC2)c2ncc(NC(=O)c3coc(CN)c3)nc12` [compound 142, 5-(aminomethyl)-N-[5-(3,6-dihydro-2H-pyran-4-yl)-8-methoxyquinoxalin-2-yl]furan-3-carboxamide] were above 1000 nM, below 10 nM and above 1000 nM.
The matching figures for `CCOC(=O)c1nnc(NC(=O)Nc2cnc3c(C4=CCOCC4)ccc(OC)c3n2)s1` [compound 143, ethyl 5-({[5-(3,6-dihydro-2H-pyran-4-yl)-8-methoxyquinoxalin-2-yl]carbamoyl}amino)-1,3,4-thiadiazole-2-carboxylate]: above 1000 nM, below 100 nM and above 1000 nM.
For `COc1ccc(-c2ccccc2)c2ncc(NC(=O)C3(C(=O)N(C)C)CC3)nc12` [compound 149, N′1-(8-methoxy-5-phenylquinoxalin-2-yl)-N1,N1-dimethylcyclopropane-1,1-dicarboxamide], the IC50 on human A3 receptor is below 1000 nM; at human A1 receptor, above 1000 nM; at human A2A receptor, below 100 nM.
Regarding `COCCOc1cccc(-c2ccc(OC)c3nc(NC(=O)c4nnc(C)s4)cnc23)c1` [compound 152, N-{8-methoxy-5-[3-(2-methoxyethoxy)phenyl]quinoxalin-2-yl}-5-methyl-1,3,4-thiadiazole-2-carboxamide], the results for the IC50 at human A3 receptor and at human A2A receptor were above 1000 nM and below 100 nM, respectively.
Turning to `COc1ccc(C2=CCOCC2)c2ncc(NC(=O)c3cnc[nH]3)nc12` [compound 159, N-[5-(3,6-dihydro-2H-pyran-4-yl)-8-methoxyquinoxalin-2-yl]-1H-imidazole-5-carboxamide], the concentration for half-maximal inhibition (IC50) is below 1000 nM on human A1 receptor, below 100 nM on human A2A receptor and below 100 nM on A2B receptors.
Take `COc1ccc(-c2ccccc2)c2ncc(NC(=O)c3cnc[nH]3)nc12` [compound 160, N-(8-methoxy-5-phenylquinoxalin-2-yl)-1H-imidazole-5-carboxamide]: the IC50 is above 1000 nM at human A1 receptor, below 100 nM at human A2A receptor and below 100 nM on A2B receptors.

The values above are taken from patent publication US11192899B2 (MERCK PATENT GMBH, priority 2017, dated 2021).
